Results: patent US11459308B2 (priority 2016, dated 2022)

Tests used:
[1] = tested on: rVSV-EBOV GP; test: microbe, parasite or virus in culture; type: cell-based, Zaire Ebolavirus; conditions: Zaire ebolavirus, read-out: rVSV-EBOV IC50
[2] = tested on: authentic EBOV (EBOV-Zaire 1995); test: microbe, parasite or virus in culture; type: cell-based, Ebola virus; conditions: Zaire ebolavirus, Vero, 48 h, read-out: infectious EBOV-Z IC50
[3] = in vitro; conditions: African green monkey

SMILES | IC50 [1] [µM] | IC50 [2] [µM] | CC50 [3] [µM]
O=[N+]([O-])c1ccc(N2CCN(Cc3ccccn3)CC2)cc1NC(c1ccccc1)c1ccccc1 [MBX 3558, 1-(benzhydrylamino)-5-[4-(pyridin-2-ylmethyl)piperazin-1-yl]-2-nitrobenzene] | 4 | 2.8 | > 200
CCCCN1CCN(c2ccc([N+](=O)[O-])c(NC(c3ccccc3)c3ccccc3)c2)CC1 [MBX 3559, 1-(benzhydrylamino)-5-(4-butylpiperazin-1-yl)-2-nitrobenzene] | 3.6 | 1.7 | > 200
CC(C)N1CCN(c2ccc([N+](=O)[O-])c(NC(c3ccccc3)c3ccccc3)c2)CC1 [MBX 3561, 1-(benzhydrylamino)-5-(4-isopropylpiperazin-1-yl)-2-nitrobenzene] | 1.5 | 1.7 | 63
O=[N+]([O-])c1ccc(N2CCN(Cc3ccncc3)CC2)cc1NC(c1ccccc1)c1ccccc1 [MBX 3562, 1-(benzhydrylamino)-5-[4-(pyridin-4-ylmethyl)piperazin-1-yl]-2-nitrobenzene] | 5.6 | 3.1 | > 200
CCCN1CCN(c2ccc([N+](=O)[O-])c(NC(c3ccccc3)c3ccccc3)c2)CC1 [MBX 3566, 1-(benzhydrylamino)-5-(4-propylpiperazin-1-yl)-2-nitrobenzene] | 2.4 | 1.6 | > 200
CN1CCN(c2cccc(NC(c3ccccc3)c3ccccc3)c2)CC1 [MBX 3567, 1-(benzhydrylamino)-3-(4-methylpiperazin-1-yl)benzene] | 2.5 | 4.1 | 19
O=[N+]([O-])c1ccc(N2CCN(Cc3cccnc3)CC2)cc1NC(c1ccccc1)c1ccccc1 [MBX 3568, 1-(benzhydrylamino)-5-[4-(pyridin-3-ylmethyl)piperazin-1-yl]-2-nitrobenzene] | 4.5 | 4.5 | > 200
O=[N+]([O-])c1ccc(N2CCN(Cc3ccccc3)CC2)cc1NC(c1ccccc1)c1ccccc1 [MBX 3569, 1-(benzhydrylamino)-5-(4-benzylpiperazin-1-yl)-2-nitrobenzene] | > 25 | > 20 | > 200
O=[N+]([O-])c1ccc(N2CCN(Cc3ccco3)CC2)cc1NC(c1ccccc1)c1ccccc1 [MBX 3575, 1-(benzhydrylamino)-5-[4-(furan-2-ylmethyl)piperazin-1-yl]-2-nitrobenzene] | 1.7 | > 20 | > 200
O=[N+]([O-])c1ccc(N2CCN(Cc3cccs3)CC2)cc1NC(c1ccccc1)c1ccccc1 [MBX 3576, 1-(benzhydrylamino)-5-[4-(thiophen-2-ylmethyl)piperazin-1-yl]-2-nitrobenzene] | 5.8 | > 20 | > 200
O=[N+]([O-])c1ccc(N2CCN(Cc3ccsc3)CC2)cc1NC(c1ccccc1)c1ccccc1 [MBX 3577, 1-(benzhydrylamino)-5-[4-(thiophen-3-ylmethyl)piperazin-1-yl]-2-nitrobenzene] | 6.5 | > 20 | > 200
O=[N+]([O-])c1ccc(N2CCN(C3CCCC3)CC2)cc1NC(c1ccccc1)c1ccccc1 [MBX 3580, 1-(benzhydrylamino)-5-(4-cyclopentylpiperazin-1-yl)-2-nitrobenzene] | 1.8 | 2.7 | > 100
CN1CCN(c2ccnc(NC(c3ccccc3)c3ccccc3)c2)CC1 [MBX 3586, 2-(benzhydrylamino)-4-(4-methylpiperazin-1-yl)pyridine] | 7 | 2.6 | 70
O=[N+]([O-])c1ccc(N2CCN(C3CCC3)CC2)cc1NC(c1ccccc1)c1ccccc1 [MBX 3589, 1-(benzhydrylamino)-5-[4-(cyclobutyl)piperazin-1-yl]-2-nitrobenzene] | 0.83 | 8 | > 200
COCCN1CCN(c2ccc([N+](=O)[O-])c(NC(c3ccccc3)c3ccccc3)c2)CC1 [MBX 3591, 1-(benzhydrylamino)-5-[4-(2-methoxyethyl)piperazin-1-yl]-2-nitrobenzene] | 1.6 | 1.4 | > 100
O=[N+]([O-])c1ccc(N2CCN(CCCO)CC2)cc1NC(c1ccccc1)c1ccccc1 [MBX 3610, 2-(benzhydrylamino)-4-[4-(3-hydroxypropyl)piperazin-1-yl]nitrobenzene] | 0.6 | 0.6 | 17
CC(C)(C)N1CCN(c2ccc([N+](=O)[O-])c(NC(c3ccccc3)c3ccccc3)c2)CC1 [MBX 3625, 2-benzhydrylamino-4-(4-tert-butylpiperazin-1-yl)nitrobenzene] | 0.85 | 0.78 | > 100
Cc1ccccc1C(Nc1cc(N2CCN(C)CC2)ccc1[N+](=O)[O-])c1ccccc1 (stereo not drawn) [MBX 3633, 2-[phenyl(o-tolyl)methylamino]-4-(4-methylpiperazin-1-yl)nitrobenzene] | 1.5 | 1.3 | 15
Cc1cccc(C(Nc2cc(N3CCN(C)CC3)ccc2[N+](=O)[O-])c2ccccc2)c1 (stereo not drawn) [MBX 3634, 2-[phenyl(m-tolyl)methylamino]-4-(4-methylpiperazin-1-yl)nitrobenzene] | 3.4 | 3 | > 100
CN1CCN(c2ccc([N+](=O)[O-])c(NC(c3ccccc3)c3cccc(Cl)c3)c2)CC1 (stereo not drawn) [MBX 3643, 2-[(3-chlorophenyl)(phenyl)methylamino]-4-(4-methylpiperazin-1-yl)nitrobenzene] | 0.85 | > 20 | 21
CN(C)CCN(C)c1ccc([N+](=O)[O-])c(NC(c2ccccc2)c2ccccc2)c1 [MBX 3729, 2-(benzhydrylamino)-4-{[2-(dimethylamino)ethyl](methyl)amino}-1-nitrobenzene] | < 0.1 | 1.3 | 10
CN1CCN(c2ccc([N+](=O)[O-])c(NC(C)(C)c3ccccc3)c2)CC1 [MBX 3741, 2-(2-phenylpropan-2-ylamino)-4-(4-methylpiperazin-1-yl)-1-nitrobenzene] | 3.1 | 10.3 | 85
CN1CCN(c2cc(C#N)c([N+](=O)[O-])c(NC(c3ccccc3)c3ccccc3)c2)CC1 [MBX 3743, 2-(benzhydrylamino)-4-(4-methylpiperazin-1-yl)-6-cyano-1-nitrobenzene] | 2 | 2 | > 100
CC(C)(C)N1CCCN(c2ccc([N+](=O)[O-])c(NC(c3ccccc3)c3ccccc3)c2)CC1 [MBX 3748, 2-(benzhydrylamino)-4-[4-(tert-butyl)-1,4-diazepan-1-yl]-1-nitrobenzene] | 0.25 | 0.7 | 23
c1ccc(C(c2ccccc2)n2cnc3ccc(N4CCN5CCCC5C4)cc32)cc1 (stereo not drawn) [MBX 4210, 1-benzhydryl-6-(hexahydropyrrolo[1,2-a]pyrazin-2(1H)-yl)-1H-benzo[d]imidazole] | 1.6 | 1.8 | > 200
CC1CN(c2ccc3ncn(C(c4ccccc4)c4ccccc4)c3c2)CCN1C (stereo not drawn) [MBX 4212, 1-benzhydryl-6-(3,4-dimethylpiperazin-1-yl)-1H-benzo[d]imidazole] | 1.6 | 0.53 | 170
